Like-named read-outs stand apart in the source and are kept apart here.
Columns and labels:
[1] = tested on: LS175T (colon) cells; test: Transwell cell migration assay, LS175T; type: cell-based
Excerpt: (§1) A375 (melanoma) (CRL-1619, ATCC, Manassas, Va., USA), A431 (melanoma) (CRL-2592, ATCC, Manassas, Va., USA), A2058 (melanoma) (CRL-11147, ATCC, Manassas, Va., USA), MDA-MB-231 (breast) (HTB-26, ATCC, Manassas, Va., USA), LS175T (colon) (ATCC, Manassas, Va., USA), HT29 (colon) (HTB-38, ATCC, Manassas, Va., USA), PC3 (prostate) (CRL-1435, ATCC, Manassas, Va., USA), Panc03.27 (pancreatic) (ATCC, Manassas, Va., USA), 4T1 (breast-mouse) (CRL-2539, ATCC, Manassas. Va., USA), D122 (lung-mouse) (the Weizmann Institute of Science), D122-luc (lung-mouse) (the Weizmann Institute of Science), and B16 F10.9 (melanoma-mouse) cells (Caliper Life Sciences, Hopkinton Mass.), were grown in RPMI medium supplemented with 10% FBS. HUVEC cells were grown in Endothelial Cell Growth Medium 2 and THP1 cells were grown in RPMI medium supplemented with 10% FBS, 2 mM L-Glutamine, 1.5 g/L sodium bicarbonate, 10 mM Hepes, 1 mM sodium pyruvate, 4.5 g/L glucose and 0.05 mM 2-mercaptoethanol. The cells were starved for 24 hours in medium without FBS. […] Cells that migrated to the lower side of the membrane were stained with Calcein-AM (Sigma) and images were taken with a fluorescence microscope. The number of migrating cells was quantified by ImageJ software and the IC50 values were calculated using Prism software (Graphpad).

[2] = tested on: HUVEC cells; test: Transwell cell migration assay, HUVEC; type: cell-based; conditions: Homo sapiens, Endothelial
Excerpt: as §1

[3] = tested on: PC3 (prostate) cells; test: Transwell cell migration assay, PC3; type: cell-based
Excerpt: as §1

[4] = tested on: MDA-MB-231 breast cancer cells; test: Transwell cell migration assay, MDA-MB-231 breast cancer cells; type: cell-based
Protocol: MDA-MB-231 (HTB-26, ATCC, Manassas, Va., USA) and MDA-MB-468 (HTB-132, ATCC, Manassas, Va., USA) breast cancer cell lines and DU 145 (HTB-81, ATCC, Manassas, Va., USA) prostate cancer cell line grown in RPMI medium supplement with 10% FBS were starved for 24 hours in medium without FBS. After 24 hours, 5×10^4 cells in FBS free medium were placed in the upper chamber of 24-well Transwell apparatus (CORNING TRANSWELL® polycarbonate membrane inserts, 8 μm pore size) with solvent (DMSO/PEG400) or 12.5 μM Compound 1 as indicated. Medium with FBS and Compound 1 was added to the bottom chamber. Twenty-four hours later the cells from the upper chamber were removed with a cotton swab. Cells that migrated to the lower side of the membrane were stained with Calcein-AM (Sigma) and images were taken with a fluorescence microscope. […]

[5] = tested on: A2058 (melanoma) cells; test: Transwell cell migration assay, A2058; type: cell-based; conditions: Homo sapiens
Excerpt: as §1

[6] = tested on: B16F10 murine melanoma cells; test: Anti-metastasis assay: lung metastases in mice implanted with B16F10 melanoma cells; type: in vivo, female B6D2F1 mice; conditions: i.p., start D3, foci count on D17 vs comparator mice; dose regimen of the value not stated (FIGS. 4A and B)
Protocol: Compound 1 and Compound 3 were tested for efficacy in inhibiting lung metastases in female B6D2F 1 mice implanted with B16F10 murine melanoma cells. Tumors were initiated on Day 1 (D1) by intravenously (i.v.) injecting 1×10^5 B16F10 tumor cells into the tail vein of test mice. Mice were sorted into three vehicle-treated control groups (n=20 or 10/group) and nine treatment groups (n=10/group). Compound 1 and Compound 3 monotherapies were administered at 10 mg/kg (2 mg/mL at 5 mL/kg) and at 20 mg/kg (4 mg/mL at 5 mL/kg), intraperitoneally (i.p.), daily for fourteen doses starting on D3 (qd×14 (start D3)). Compound 1 and Compound 3 monotherapies also were administered at 20 mg/kg (4 mg/mL at 5 mL/kg), i.p., twice daily for twenty-nine doses starting on D3 (bid×14.5 (start D3)). […]
The study endpoint was defined as 100 metastases per lung set in animals periodically sampled from the saline control group. […] All animals remaining on study were euthanized, their metastases were counted, and the mean±SEM foci count for each group was calculated. Efficacy was determined by an analysis of percent inhibition, the percent change in the mean foci count on D17 for treated versus comparator mice, and by statistical assessment of differences in foci counts between treated and comparator mice.

[7] = tested on: A375 melanoma cells; test: Transwell cell migration assay, A375 melanoma cells; type: cell-based; conditions: Homo sapiens, A-375
Protocol: A375 melanoma cells (CRL-1619, American Type Culture Collection (“ATCC”), Manassas Va., USA)) grown in RPMI medium supplement with 10% FBS were starved for 24 hours in FBS free medium. After starvation of 24 hr, 5×10^4 cells in FBS free medium were placed in the upper chamber of 24-well, Transwell apparatus (CORNING TRANS WELL® polycarbonate membrane inserts, 5 μm pore size) with solvent (DMSO/PEG400) or different concentrations of Compound 1 (PRT7000467), Compound 2 (PRT7041128), or Compound 3 (PRT7081582). Medium containing FBS and compounds was added to the bottom chamber. Twenty-four hours later the melanoma cells from the upper chamber were removed with a cotton swab. Cells that migrated to the lower side of the membrane were stained with Calcein-AM (Sigma) and images were taken with fluorescence microscope. The number of migrating cells was quantified by ImageJ software and the IC50 values were calculated using Prism software (Graphpad) (FIG. 1A,1E).
A375 (melanoma) (CRL-1619, ATCC, Manassas, Va., USA), A431 (melanoma) (CRL-2592, ATCC, Manassas, Va., USA), A2058 (melanoma) (CRL-11147, ATCC, Manassas, Va., USA), MDA-MB-231 (breast) (HTB-26, ATCC, Manassas, Va., USA), LS175T (colon) (ATCC, Manassas, Va., USA), HT29 (colon) (HTB-38, ATCC, Manassas, Va., USA), PC3 (prostate) (CRL-1435, ATCC, Manassas, Va., USA), Panc03.27 (pancreatic) (ATCC, Manassas, Va., USA), 4T1 (breast-mouse) (CRL-2539, ATCC, Manassas. Va., USA), D122 (lung-mouse) (the Weizmann Institute of Science), D122-luc (lung-mouse) (the Weizmann Institute of Science), and B16 F10.9 (melanoma-mouse) cells (Caliper Life Sciences, Hopkinton Mass.), were grown in RPMI medium supplemented with 10% FBS. HUVEC cells were grown in Endothelial Cell Growth Medium 2 and THP1 cells were grown in RPMI medium supplemented with 10% FBS, 2 mM L-Glutamine, 1.5 g/L sodium bicarbonate, 10 mM Hepes, 1 mM sodium pyruvate, 4.5 g/L glucose and 0.05 mM 2-mercaptoethanol. The cells were starved for 24 hours in medium without FBS. At the end of the starvation, 5×10^4 cells in medium without FBS were placed in the upper chamber of 24-well, Transwell apparatus (CORNING TRANSWELL® polycarbonate membrane inserts, 5 μm pore size for […] and THP1 cells and 8 μm pore size for all the other cells) with solvent (DMSO/PEG400) or different concentrations of compound 1 (PRT7000467). Medium with FBS and compounds was added to the bottom chamber. Twenty-four hours later the cells from the upper chamber were removed with a cotton swab. Cells that migrated to the lower side of the membrane were stained with Calcein-AM (Sigma) and images were taken with a fluorescence microscope. The number of migrating cells was quantified by ImageJ software and the IC50 values were calculated using Prism software (Graphpad).

[8] = A375 melanoma cells, Transwell 5 μm pore, 24 h, Example 3 (FIGS. 1A, 1E), read-out: IC50 in the migration assay

Row | SMILES | IC50 [1] [µM] | IC50 [2] [µM] | IC50 [3] [µM] | IC50 ([4]; Homo sapiens, MDA-MB-231, MDA-MB231, Breast) [µM] | cell migration (Transwell, images) ([4]; MDA-MB-231, 12.5 μM, 24 h, 8 μm pore (FIG. 2)) | IC50 [5] [µM] | efficacy in inhibiting lung metastases (percent inhibition of mean foci count) [6] [%] | IC50 ([7]; A375, Melanoma, reexamined, Table 1, 6 repeats, read-out: IC50 (μM), Transwell migration) [µM] | IC50 [7, 8] [µM]
1 | Cc1cc(C)nc(NS(=O)(=O)c2ccc(NC(=O)/C(=C\c3cccs3)NC(=O)c3cccs3)cc2)n1 [Compound 1] | 1 | 2.9 | 6.3 | 0.5 | inhibits the migration | 3.5 | 51 | 1.7 | 5.7
2 | Cc1cc(S(=O)(=O)Nc2ncccn2)ccc1NC(=O)/C(=C\c1cccs1)NC(=O)c1cccs1 [Compound 3] |  |  |  |  |  |  | 45 |  | 1.41

Reference: patent publication US20110130374A1, “Small Pyrimidine Derivatives and Methods of Use Thereof” (BIOSEARCH(2007) LTD., priority 2009, published 2011)
